This is an account of results in US20080214563A1, “Benzimidazole Thiophene Compounds As Plk Modulators” (priority 2005, published 2008).

Data set [1] has as its target T1, PLK1 kinase domain (Homo sapiens, UniProt P53350).
T1 construct: made in house; host or cells: baculovirus infected T. ni cells
Put plainly: Assay for Inhibition of PLK1 (33P SPA kinase assay). The format is biochemical. As to conditions: 2 nM PLK1 kinase domain, 1 μM ATP; read-out: PLK1 pIC50 (converted). Here is the method:
All procedures were performed at 4° C. Cells were lysed in 50 mM HEPES, 200 mM NaCl, 50 mM imidazole, 5% glycerol; pH 7.5. The homogenate was centrifuged at 14K rpm in a SLA-1500 rotor for 1 h and the supernatant filtered through a 1.2 micron filter. The supernatant was loaded onto a Nickel chelating Sepharose (Amersham Pharmacia) column and washed with lysis buffer. Protein was eluted using 20%, 30% and 100% buffer B steps where buffer B is 50 mM HEPES, 200 mM NaCl, 300 mM imidazole, 5% glycerol; pH 7.5. Fractions containing PLK were determined by SDS-PAGE. Fractions containing PLK were diluted five-fold with 50 mM HEPES, 1 mM DTT, 5% glycerol; pH 7.5, then loaded on an SP Sepharose (Amersham Pharmacia) column. After washing the column with 50 mM HEPES, 1 mM DTT, 5% glycerol; pH 7.5, PLK was step eluted with 50 mM HEPES, 1 mM DTT, 500 mM NaCl; 5% glycerol; pH 7.5. PLK was concentrated using a 10 kDa molecular weight cutoff membrane and then loaded onto a Superdex 200 gel filtration (Amersham Pharmacia) column equilibrated in 25 mM HEPES, 1 mM DTT, 500 mM NaCl, 5% glycerol; pH 7.5. Fractions containing PLK were determined by SDS-PAGE. PLK was pooled, aliquoted and stored at −80° C. Samples were quality controlled using mass spectrometry, N-terminal sequencing and amino acid analysis.
B. Enzyme activity +/− inhibitors was determined as follows:
All measurements were obtained under conditions where signal production increased linearly with time and enzyme. Test compounds were added to white 384-well assay plates (0.1 μL for 10 μL and some 20 μl assays, 1 μL for some 20 μL assays) at variable known concentrations in 100% DMSO. DMSO (1-5% final, as appropriate) and EDTA (65 mM in reaction) were used as controls.
Reaction Mix (10 or 20 μL) was quickly added to each well immediately following addition of enzyme via automated liquid handlers and incubated 1-1.5 h at 22° C. The 20 μL enzymatic reactions were stopped with 50 μL of stop mix (50 mM EDTA, 4.0 mg/mL Streptavidin SPA beads in Standard Dulbecco's PBS (without Mg^2+ and Ca^2+), 50 μM ATP) per well. The 10 μL reactions were stopped with 10 μL of stop mix (50 mM EDTA, 3.0 mg/mL Streptavidin-coupled SPA Imaging Beads (“LeadSeeker”) in Standard Dulbecco's PBS (without Mg^2+ and Ca^2+), 50 μM ATP) per well. Plates were sealed with clear plastic seals, spun at 500×g for 1 min or settled overnight, and counted in Packard TopCount for 30 seconds/well (regular SPA) or imaged using a Viewlux imager (LeadSeeker SPA). Signal above background (EDTA controls) was converted to percent inhibition relative to that obtained in control (DMSO-only) wells.

The subject of data set [2] is HCT-116. Nature of the data set: Cell-Titer Glo Cell Growth Inhibition Assay, HCT116. To be noted: Homo sapiens, CellTiter-Glo, 72 h, read-out: CTG HCT116 IC50. The format is cell-based. The method, then:
(§1) A549-L (human lung), BT474 (human breast), Colo 205 (human colon), H1299 (human lung), Hela (human cervix), HCT-116 (human colon), HN5 (human head and neck), HT29 (human colon), LNCap (human prostate), MCF7 (human breast), MDA-MB468 (human breast), MX-1 (human breast), RPMI 8226 (human peripheral blood), SKOV3 (human ovary) and P388 (murine leukemia) cell lines were cultured in RPMI1640 containing 10% fetal bovine serum at 37° C. in a 5% CO2 incubator. Cell lines were split into T75 flasks (Falcon #353136) two to three days prior to assay set up at density which yields approximately 70-80% confluency at time of harvest for assay. Cells were harvested using 0.25% trypsin with EDTA (Glibco/Invitrogen #25200-056), Cell counts were performed on cell suspensions using Trypan Blue exclusion staining, cells were then plated in 105 uL of culture media per well at the following densities in 96 well Costar #3916 black flat bottom plates: All human cell lines were plated at 500 cells/well. P388 were plated at 250 cells/well. All plates were placed at 5% CO2 37° C. overnight and then test compounds were added the following day. One plate of each cell type is treated with CellTiter-Glo (Promega #G7573) for a day 0 proliferation measurement and read as described below. The test compounds are prepared in clear U bottom polypropylene 96 well plates (Falcon #35-1190 with consecutive two fold dilutions. 9 uL of these dilutions was added into each well of the cell plates. The final concentration of DMSO in all wells is 0.15%. Cells were incubated at 37° C., 5% CO2 for 72 h. Following 72 h of incubation with compounds each plate was developed and read. CellTiter-Glo reagent was added to assay plates using a volume equivalent to the cell culture volume in the wells. Plates were shaken for approximately two minutes and incubated at room temperature for approximately 15 min and the chemiluminescent signal is read on the Victor V or Envison 2100 reader. […] Concentration of compound that inhibited 50% of cell growth (IC50) was analysis by 4 or 6 parameter fit of data using XLfit, value of no cell addition was subtracted from all samples for background.

In data set [3] the test system is Colo 205. Nature of the data set: Cell-Titer Glo Cell Growth Inhibition Assay, COLO205. The format is cell-based. To be noted: Homo sapiens, CellTiter-Glo, 72 h, read-out: CTG COLO205 IC50. The method, then: as §1
(Cellular ATP, detected with luciferase, serves as a proxy for viable cell number.)

The test system of data set [4] is P388. Nature of the data set: Cell-Titer Glo Cell Growth Inhibition Assay, P388. The format is cell-based, murine. As to conditions: Mus musculus, CellTiter-Glo, 72 h, read-out: CTG P388 IC50. Here is the method:
as §1

In data set [5] the test system is A549-L. Put plainly: Cell-Titer Glo Cell Growth Inhibition Assay, A549-L. It is filed as cell-based. To be noted: Homo sapiens, CellTiter-Glo, 72 h, read-out: CTG A549-L IC50. The method, then:
as §1

The subject of data set [6] is HT29. Nature of the data set: Cell-Titer Glo Cell Growth Inhibition Assay, HT29. As to conditions: Homo sapiens, HT-29, CellTiter-Glo, 72 h, read-out: CTG HT29 IC50. It is filed as cell-based. Here is the method: as §1
The subject of data set [7] is SKOV3. Put plainly: Cell-Titer Glo Cell Growth Inhibition Assay, SKOV-3. It is filed as cell-based. To be noted: Homo sapiens, SK-OV-3, CellTiter-Glo, 72 h, read-out: CTG SKOV-3 IC50. The method, then:
as §1

In data set [8] the test system is MX-1. Put plainly: Cell-Titer Glo Cell Growth Inhibition Assay, MX-1. It is filed as cell-based. To be noted: Homo sapiens, MX1, CellTiter-Glo, 72 h, read-out: CTG MX-1 IC50. Here is the method: as §1
A short description of data set [9]: Intravenous pharmacokinetics in CD-1 mouse. It is filed as in vivo. As to conditions: plasma, iv bolus, male CD-1 mouse, dose 1.9-7.4 mg/kg per compound (Table 3); for clearance: read-out: Plasma CL. The method, then:
Preliminary investigation of the intravenous pharmacokinetics of compounds of invention were carried out in fed conscious CD-1 mouse. Compounds were formulated as 1-10 mg/kg, 5 mL/kg, 1-2 mg/mL solution (Table 3). Twenty one male mice (n=3 mice per time point) (˜30 g) received dose solution by bolus injection in the tail vein. The formulation for iv were either 20% beta cyclodextrin in saline pH 3.5-6 or PEG400:ethanol:saline (50:15:35 v/v). Blood samples (˜0.4 mL) were collected terminally by cardiac puncture following anesthetization in a CO2 chamber at 2, 15, 30, 60 min, 2, 4, and 6 h following iv administration. Blood samples were collected into tubes containing heparin and placed on crushed ice promptly after collection. Plasma was collected by centrifugation, frozen and stored at about −80° C. prior to analysis. Blood or plasma concentrations were determined by LC/MS/MS equipped with an electrospray ion source and using calibration curves for the appropriate matrix. The lower level of quantitation (LLQ) was 10 ng/mL. Blood or plasma concentration-time data were analyzed by non-compartmental methods using the computer program WinNonlin Professional (version 4.1). Area under the blood or plasma concentration-time curve (AUC) was calculated using the linear trapezoidal rule for each incremental trapezoid up to Cmax, and the log trapezoidal rule for each trapezoid thereafter. The terminal elimination rate constant (λz) was derived from the log-linear disposition phase of the concentration-time curve using least-squares regression analysis with visual inspection of the data to determine the appropriate number of terminal data points for regression analysis.
Following iv administration, the total body clearance (CL) was estimated. CL was calculated by dividing the dose by AUC(0−t). The clearance values were assigned as follows. Low <30 mL/min/kg, moderate 30-70 mL/min/kg, high >70 mL/min/kg. The assignment was based on hepatic blood flow i.e. hepatic blood flow of 0-30% low, 30-70% moderate and 70-100% high. The hepatic blood flow in mouse is ˜100 mL/min/kg.

T1 sequence (P53350 21-346): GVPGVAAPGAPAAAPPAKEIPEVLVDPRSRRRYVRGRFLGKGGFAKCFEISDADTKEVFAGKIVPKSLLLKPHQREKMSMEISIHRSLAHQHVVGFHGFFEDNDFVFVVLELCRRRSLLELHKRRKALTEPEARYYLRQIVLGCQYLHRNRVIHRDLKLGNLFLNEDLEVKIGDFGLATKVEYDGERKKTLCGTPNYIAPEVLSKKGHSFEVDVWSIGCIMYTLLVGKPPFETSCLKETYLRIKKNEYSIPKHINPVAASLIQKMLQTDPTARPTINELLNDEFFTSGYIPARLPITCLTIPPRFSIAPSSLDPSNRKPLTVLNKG

As a reminder, the AUC(0-t) is exposure summed from dosing to a finite time, without extrapolation to infinity. Higher therefore signals high exposure. Consider `C[C@@H](Oc1cc(-n2cnc3cc(-c4ccnc(NC5CCN(C)CC5)c4)ccc32)sc1C(N)=O)c1ccccc1C(F)(F)F` [Example 3, 5-(5-{2-[(1-Methyl-4-piperidinyl)amino]-4-pyridinyl}-1H-benzimidazol-1-yl)-3-({(1R)-1-[2-(trifluoromethyl)phenyl]ethyl}oxy)-2-thiophenecarboxamide], for which the IC50 in data set [1] was less than 10 nM; in data set [2] it was less than 100 nM; in data set [3], less than 100 nM; in [4] it was less than 100 nM; in data set [5] it was less than 100 nM; in data set [6], less than 100 nM. Moreover, the IC50 in data set [7] and in data set [8] was less than 100 nM each time. Moreover, the AUC(0-t) in data set [9] was determined as 1850 ng·h/mL. In addition, the clearance in [9] stood at 35.6 mL/min/kg.

Turning to `C[C@@H](Oc1cc(-n2cnc3cc(-c4ccnc(N5CCN(C)CC5)c4)ccc32)sc1C(N)=O)c1ccccc1C(F)(F)F` [Example 2, 5-{5-[2-(4-Methyl-1-piperazinyl)-4-pyridinyl]-1H-benzimidazol-1-yl}-3-({(1R)-1-[2-(trifluoromethyl)phenyl]ethyl}oxy)-2-thiophenecarboxamide], the IC50 was less than 100 nM in data set [2]; less than 100 nM in [3]; 100 to 1000 nM in data set [4]; less than 100 nM in data set [5]; less than 100 nM in [6]; 100 to 1000 nM in data set [7]. In addition, the IC50 in data set [8] was less than 100 nM. Further, in data set [9], the AUC(0-t) is 2200 ng·h/mL. Besides, in data set [9], the clearance turned out to be 32.3 mL/min/kg.

On to `C[C@@H](Oc1cc(-n2cnc3cc(-c4ccc(NC5CCN(C)CC5)nc4)ccc32)sc1C(N)=O)c1ccccc1Cl` [Example 6, 3-{[(1R)-1-(2-Chlorophenyl)ethyl]oxy}-5-(5-{6-[(1-methyl-4-piperidinyl)amino]-3-pyridinyl}-1H-benzimidazol-1-yl)-2-thiophenecarboxamide], for which the IC50 in [2] is less than 100 nM; in data set [3], less than 100 nM; in data set [4], 100 to 1000 nM; in data set [5], less than 100 nM; in data set [6], less than 100 nM; in data set [7], less than 100 nM. In data set [8], the IC50 was less than 100 nM. In addition, in [9], the exposure AUC(0-t) worked out at 2780 ng·h/mL. The clearance in [9] turned out to be 18.6 mL/min/kg.
